# Measurements from patent US8350118B2, “Allergic disease model animals” (Keio University, priority 2008, dated 2013).
# Tested on: Langerhans cells
# Assay: corneum-barrier transmission: uptake into Langerhans cells after application to ear skin surface
# Assay type: in vivo, mouse
# Settings: 7 weeks of age, 10 mg/mL applied to skin surface inside the ear, ears collected after 24 hours
# Source text: To confirm that the skin-barrier function is impaired in FLG-gene deficient mice, a method was developed for evaluating skin-barrier function based on the amount of uptake of antigen into Langerhans cells that are antigen-presenting cells in epidermis, to examine the skin-barrier function in FLG^−/− mice and wild-type mice. In a conventional method for evaluating antigen uptake into Langerhans cells by externally applying antigen to the skin, reagents such as FITC that easily pass through the corneum barrier has been used. However, a change in the corneum-barrier transmission due to loss of filaggrin cannot be observed by the methods using reagents that easily pass through the corneum barrier. Thus the present inventors established for the first time a method for evaluating corneum-barrier transmission using sulfo-NHS-LC-biotin which is a cell-membrane impermeable, protein-biotinylating reagent. This method has enabled the observation of a change in corneum-barrier transmission. The structural formula of sulfo-NHS-LC-biotin is shown below. Sulfo-NHS-LC-biotin (#21335; Thermo Scientific) was applied to a FLG^−/− mouse and a wild-type littermate mouse at 7 weeks of age on the skin surface inside the ear, and the uptake into Langerhans cells was observed under a fluorescence microscope. […]
compound,measurement,setting,value
"O=C(CCCCC1SCC2NC(=O)NC21)NCCCCCC(=O)ON1C(=O)CC(S(=O)(=O)[O-])C1=O.[Na+] (centres unmarked) [biotin, sulfo-NHS-LC-biotin]",biotin uptake into Langerhans cells,FLG−/− mouse,biotin (green) taken up was accumulated in Langerhans cell body (red)
same,biotin uptake into Langerhans cells,wild-type littermate mouse,no biotin (green) uptake into Langerhans cells (red) was observed
